In patent US20210254000A1, “PROCESS FOR PRODUCING A T CELL COMPOSITION” (Juno Therapeutics, Inc., priority 2017, published 2021):

Legend:
anti-CD19 CAR-T cells = experiment: Serial stimulation assay with irradiated K562-CD19 target cells; assay type: cell-based, human; conditions: four rounds of restimulation with K562-CD19 cells; relative to media only
Experimental: (§1) Separate compositions of CD4+ and CD8+ cells were isolated from three human donors, activated and transduced with a viral vector encoding an anti-CD19 CAR substantially as described in Example 2. After transduction, the CD4+ and CD8+ T cells derived from each donor were separately incubated for 8 days in the presence of a mTOR kinase inhibitor to expand T cells substantially as described in Example 2, except in the presence of 200 nM PI-103, 1 μM Compound 63, or with DMSO vehicle or media only controls. CD4+ and CD8+ T cells from each donor were then separately harvested, formulated, and cryofrozen. […] Functional activities of the generated anti-CD19 CAR-T cell compositions were assessed.
The ability of cells to expand ex vivo following repeated stimulations in some aspects can indicate capacity of CAR-T cells to persist (e.g., following initial activation) and/or is indicative of function in vivo (Zhao et al. (2015) Cancer Cell, 28:415-28). […] Every 3-4 days, T cells were harvested, counted, and restimulated with new target cells using the same culture conditions after resetting cell number to initial seeding density for each round. […] The population doublings (FIG. 7A) and area under the curves (AUC) as a function of population doublings over time relative to AUC of cells expanded with media only (FIG. 7B) were determined.

CD8+ CAR-T cells = experiment: Glycolytic metabolism (ECAR, Seahorse) of CD8+ CAR-T cells expanded with inhibitor; assay type: cell-based, human; conditions: CD8+ CAR-T cells expanded with 1 μM Compound 63; 3 donors
Experimental: as §1
Changes in cellular glycolytic metabolism in response to T cell receptor (TCR) stimulation were measured in CD8+ CAR-T cells from the generated anti-CD19 CAR-T cell composition prior to combining with CD4+ T cells. Glycolytic metabolism was assessed by measuring the extracellular acidification rate (ECAR) in CD8+ CAR-T cells in real time with an extracellular flux bioanalyzer (Seahorse Bioanalyzer, Agilent Technologies). […] Area under the curve (AUC) for the ECAR rates (mpH/min) from 0 to 76 minutes of the assay and maximal ECAR glycolytic burst ratio relative to media controls (n=3 donors) were determined.

SMILES: CC(C)c1ccccc1-n1c(=O)[nH]c2c(C(N)=O)nc(-c3cccc(O)c3)nc21 [Compound 63, 2-(3-Hydroxyphenyl)-9-(2-isopropylphenyl)-8-oxo-8,9-dihydro-7H-purine-6-carboxamide]
- mean AUC of population doublings compared to T cells expanded with PI-103 or DMSO vehicle (anti-CD19 CAR-T cells): larger mean AUC
- glycolytic burst upon TCR stimulation (ECAR AUC, ECAR ratio) relative to media control (CD8+ CAR-T cells): trend towards enhanced glycolytic burst
